This assay addresses Cav3.2 (Homo sapiens, UniProt O95180). The assay is described as follows: Calcium flux FLIPR assay, HEK293 cells recombinantly expressing Cav3.2. The following applies: Cav3.2-channel, Ca2+ entry stimulated by 10 mM CaCl2. The assay is classed as cell-based. As to the method:
In Vitro Methods—Measurement of Calcium Channel Flux by Means of FLIPR Assays.
HEK293 cells recombinantly expressing either voltage-dependent T-type calcium channel subunit […] (Cav3.2) or voltage-dependent L-type calcium channel subunit alpha-1C (Cav1.2) are assayed for calcium flux using the calcium indicator dye Fluo-4-AM (Molecular Devices) and FLIPR technology (Fluorometric Imaging Plate Reader, Molecular Devices) (Xie X, Van Deusen A L, Vitko I, Babu D A, Davies L A, Huynh N, Cheng H, Yang N, Barrett P Q, Perez-Reyes E. Validation of high throughput screening assays against three subtypes of Ca(v)3 T-type channels using molecular and pharmacologic approaches. Assay and Drug Development Technologies 2007, 5(2), 191-203). The HEK293 cells recombinantly expressing Cav3.2 are maintained in DMEM growth medium (Life Technologies) supplemented with 10% Fetal Bovine Serum (FBS), 100 U/ml penicilin (Life Technologies), 100 μg/ml streptomycin (Life Technologies) and 1 mg/ml G418 (Life Technologies). HEK293 cells recombinantly expressing Cav1.2 are maintained in DMEM growth medium (Life technologies) supplemented with 10% FBS, 0.1 mg/ml G418 (Life Technologies), 0.1 mg/ml hygromycin (Life Technologies) and 40 ug/ml zeocin (Life Technologies).
Cells are washed once with PBS, then dissociated in 0.25% trypsin/EDTA (Life Technologies) and seeded into poly-D-lysine coated 384-well black, clear bottom plates (BD Biosciences) at a density of 30,000 cells/well. The seeded plates are incubated overnight at 37° C.
Immediately prior to performing the assay, medium is removed and cells are treated for 1 hour at 37° C. with loading buffer containing HBSS 1× (137 mM NaCl; 5.4 mM KCl; 0.25 mM Na2HPO4; 1.3 mM CaCl2; 0.4 mM MgSO04; 0.5 mM MgCl2; 0.4 mM KH2PO4, pH 7.4), 0.375 g/L NaHCO3, 20 mM Hepes, supplemented with 3 μM Fluo-4-AM and 0.15% Pluronic (Life Technologies). The cells are then washed three times with assay buffer (HBSS 1×; 0.375 g/L NaHCO3; 20 mM Hepes; 1% FBS; pH 7.4) and allowed to rest in 50 μl of wash buffer for 30 minutes.
Stock solutions of test compounds are prepared to a concentration of 10 mM in DMSO. For the Cav3.2 assay, serial dilutions of the compounds are prepared in TEAC buffer (100 mM tetraethylammonium chloride; 20 mM Hepes; 2.5 mM CaCl2; 5 mM KCl; 1 mM MgCl2; 1% FBS; pH 7.2), for the Cav1.2 assay serial dilutions are prepared in assay buffer. […] The compounds are incubated with the cells for 3 minutes and Ca2+ entry is stimulated by adding either CaCl2 to a final concentration of 10 mM (Cav3.2 assay) or by adding KCl to a final concentration of 20 mM (Cav1.2 assay). The kinetics of fluorescence increase are recorded for every well and the area under the fluorescence trace for every compound concentration is used to generate inhibition curves using non-linear regression sigmoidal concentration-response curve analysis with in-house software. IC50 values are calculated and represent the compound concentration required to inhibit 50% of the signal that is obtained in the presence of vehicle instead of test compound.
On the technique in general: A change in cytosolic calcium serves as a functional read-out for many receptors and channels.
Chain of Cav3.2 (O95180 whole entry, looked up): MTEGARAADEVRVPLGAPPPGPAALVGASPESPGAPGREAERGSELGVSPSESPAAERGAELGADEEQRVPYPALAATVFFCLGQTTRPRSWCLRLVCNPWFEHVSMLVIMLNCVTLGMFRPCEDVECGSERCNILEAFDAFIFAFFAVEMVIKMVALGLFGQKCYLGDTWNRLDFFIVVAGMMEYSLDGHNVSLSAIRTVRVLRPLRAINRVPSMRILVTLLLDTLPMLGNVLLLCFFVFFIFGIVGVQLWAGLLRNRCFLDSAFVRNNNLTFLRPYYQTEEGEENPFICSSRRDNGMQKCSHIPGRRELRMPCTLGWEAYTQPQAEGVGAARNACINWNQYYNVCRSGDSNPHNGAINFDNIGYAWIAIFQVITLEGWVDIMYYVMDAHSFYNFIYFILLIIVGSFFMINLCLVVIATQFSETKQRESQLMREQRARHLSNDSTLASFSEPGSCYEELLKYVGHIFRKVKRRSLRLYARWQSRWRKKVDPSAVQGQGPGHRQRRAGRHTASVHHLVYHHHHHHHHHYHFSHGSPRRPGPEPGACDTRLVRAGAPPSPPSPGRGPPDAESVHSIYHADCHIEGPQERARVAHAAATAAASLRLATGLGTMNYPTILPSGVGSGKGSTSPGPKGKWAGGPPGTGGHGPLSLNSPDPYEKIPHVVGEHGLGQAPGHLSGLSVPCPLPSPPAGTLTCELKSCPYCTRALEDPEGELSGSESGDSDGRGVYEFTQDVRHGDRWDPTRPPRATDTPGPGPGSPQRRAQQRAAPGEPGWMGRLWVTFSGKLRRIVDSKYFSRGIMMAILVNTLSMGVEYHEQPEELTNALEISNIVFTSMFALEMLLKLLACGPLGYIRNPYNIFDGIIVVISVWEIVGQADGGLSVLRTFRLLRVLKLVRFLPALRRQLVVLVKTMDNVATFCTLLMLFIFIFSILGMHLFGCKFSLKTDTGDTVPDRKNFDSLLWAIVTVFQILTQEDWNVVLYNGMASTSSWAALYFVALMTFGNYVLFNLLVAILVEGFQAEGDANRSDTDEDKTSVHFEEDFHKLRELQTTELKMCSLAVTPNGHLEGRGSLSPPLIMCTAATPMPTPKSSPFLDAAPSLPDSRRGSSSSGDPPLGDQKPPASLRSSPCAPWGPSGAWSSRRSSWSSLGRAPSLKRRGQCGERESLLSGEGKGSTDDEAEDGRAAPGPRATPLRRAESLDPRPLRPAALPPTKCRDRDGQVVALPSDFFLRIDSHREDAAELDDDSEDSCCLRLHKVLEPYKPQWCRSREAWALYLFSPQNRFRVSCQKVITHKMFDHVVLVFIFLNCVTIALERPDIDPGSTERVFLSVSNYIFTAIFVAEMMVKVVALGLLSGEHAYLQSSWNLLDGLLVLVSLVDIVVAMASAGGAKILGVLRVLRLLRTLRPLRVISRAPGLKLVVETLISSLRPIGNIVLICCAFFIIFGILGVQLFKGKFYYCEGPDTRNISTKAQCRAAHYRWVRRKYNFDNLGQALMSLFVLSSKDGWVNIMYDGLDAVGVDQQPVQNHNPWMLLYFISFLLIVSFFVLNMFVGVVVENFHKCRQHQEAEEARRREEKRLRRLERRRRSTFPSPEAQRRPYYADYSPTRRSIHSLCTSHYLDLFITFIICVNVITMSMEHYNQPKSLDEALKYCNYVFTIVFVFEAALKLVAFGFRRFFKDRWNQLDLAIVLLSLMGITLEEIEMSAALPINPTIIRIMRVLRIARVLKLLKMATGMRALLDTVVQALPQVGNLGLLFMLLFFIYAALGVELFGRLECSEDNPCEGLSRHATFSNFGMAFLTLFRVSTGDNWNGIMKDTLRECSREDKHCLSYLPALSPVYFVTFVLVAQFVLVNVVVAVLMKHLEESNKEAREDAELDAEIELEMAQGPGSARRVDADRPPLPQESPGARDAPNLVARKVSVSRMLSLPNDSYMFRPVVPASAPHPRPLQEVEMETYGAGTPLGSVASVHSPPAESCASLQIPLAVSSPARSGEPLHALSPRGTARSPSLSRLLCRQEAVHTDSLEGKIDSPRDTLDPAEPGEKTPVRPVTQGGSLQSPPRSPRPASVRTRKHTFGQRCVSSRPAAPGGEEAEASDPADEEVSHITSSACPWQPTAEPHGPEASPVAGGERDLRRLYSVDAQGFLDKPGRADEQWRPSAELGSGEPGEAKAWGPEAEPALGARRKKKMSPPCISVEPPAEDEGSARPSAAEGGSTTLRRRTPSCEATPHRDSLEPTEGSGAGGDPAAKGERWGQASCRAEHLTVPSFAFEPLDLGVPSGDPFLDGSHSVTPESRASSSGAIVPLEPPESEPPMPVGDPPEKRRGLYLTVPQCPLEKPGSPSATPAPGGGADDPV
Take `N#Cc1ccc(Cn2ncc(NC(=O)Cc3ccc(OCC4CC(F)(F)C4)cc3)n2)cc1` [Example 238, N-[2-(4-Cyano-benzyl)-2H-[1,2,3]triazol-4-yl]-2-[4-(3,3-difluoro-cyclobutylmethoxy)-phenyl]-acetamide]: the IC50 was determined as 24 nM.
Under `N#Cc1ccc(Cn2ncc(NC(=O)Cc3ccc(C4(F)COC4)cc3)n2)cc1` [Example 198, N-[2-(4-Cyano-benzyl)-2H-[1,2,3]triazol-4-yl]-2-[4-(3-fluoro-oxetan-3-yl)-phenyl]-acetamide] stands 130 nM; under `Cc1nn(C)c2ccc(CC(=O)Nc3cnn(Cc4ccc(F)c(F)c4)n3)cc12` [Example 28, N-[2-(3,4-Difluoro-benzyl)-2H-[1,2,3]triazol-4-yl]-2-(1,3-dimethyl-1H-indazol-5-yl)-acetamide], 22 nM; under `N#Cc1ccc(Cn2ncc(NC(=O)Cc3cnc(N4CCCC4)c(F)c3)n2)cc1F` [Example 161, N-[2-(4-Cyano-3-fluoro-benzyl)-2H-[1,2,3]triazol-4-yl]-2-(5-fluoro-6-pyrrolidin-1-yl-pyridin-3-yl)-acetamide], 25 nM.
`N#Cc1ccc(Cn2ncc(NC(=O)Cc3ccc(C4(C(F)(F)F)CC4)cc3)n2)nc1` [Example 245, N-[2-(5-Cyano-pyridin-2-ylmethyl)-2H-[1,2,3]triazol-4-yl]-2-[4-(1-trifluoromethyl-cyclopropyl)-phenyl]-acetamide]: the IC50 amounted to 190 nM.
With `O=C(Cc1ccc(C2COC2)cc1)Nc1cnn(Cc2ccc(F)c(F)c2)n1` [Example 23, N-[2-(3,4-Difluoro-benzyl)-2H-[1,2,3]triazol-4-yl]-2-(4-oxetan-3-yl-phenyl)-acetamide], the IC50 came to 46 nM.
The figure for `N#Cc1ccc(Cn2ncc(NC(=O)Cc3ccc(C4(C#N)CC4)cc3)n2)cc1F` [Example 231, 2-[4-(1-Cyano-cyclopropyl)-phenyl]-N-[2-(4-cyano-3-fluoro-benzyl)-2H-[1,2,3]triazol-4-yl]-acetamide] is 36 nM; for `COc1ccc(Cn2ncc(NC(=O)Cc3ccc(OCC4(C)COC4)cc3)n2)cc1F` [Example 123, N-[2-(3-Fluoro-4-methoxy-benzyl)-2H-[1,2,3]triazol-4-yl]-2-[4-(3-methyl-oxetan-3-ylmethoxy)-phenyl]-acetamide] it is 870 nM.
As for `N#Cc1ccc(Cn2ncc(NC(=O)Cc3ccc(OCC4COC4)cc3)n2)cc1F` [Example 131, N-[2-(4-Cyano-3-fluoro-benzyl)-2H-[1,2,3]triazol-4-yl]-2-[4-(oxetan-3-ylmethoxy)-phenyl]-acetamide], the IC50 was found to be 210 nM.
Consider `N#Cc1ccc(Cn2ncc(NC(=O)Cc3ccc(N4CCCC4)nc3)n2)cc1F` [Example 75, N-[2-(4-Cyano-3-fluoro-benzyl)-2H-[1,2,3]triazol-4-yl]-2-(6-pyrrolidin-1-yl-pyridin-3-yl)-acetamide], for which the IC50 is 87 nM.
The figure for `COc1ccc(Cn2ncc(NC(=O)Cc3ccc4c(cnn4C)c3)n2)cc1C#N` [Example 208, N-[2-(3-Cyano-4-methoxy-benzyl)-2H-[1,2,3]triazol-4-yl]-2-(1-methyl-1H-indazol-5-yl)-acetamide] is 600 nM; for `COCCOc1ccc(Cn2ncc(NC(=O)Cc3ccc4c(ccn4C)c3)n2)cc1` [Example 87, N-{2-[4-(2-Methoxy-ethoxy)-benzyl]-2H-[1,2,3]triazol-4-yl}-2-(1-methyl-1H-indol-5-yl)-acetamide] it is 460 nM.
On to `COc1c(F)cc(Cn2ncc(NC(=O)Cc3ccc(C4(C(F)(F)F)CC4)cc3)n2)cc1F` [Example 145, N-[2-(3,5-Difluoro-4-methoxy-benzyl)-2H-[1,2,3]triazol-4-yl]-2-[4-(1-trifluoromethyl-cyclopropyl)-phenyl]-acetamide], for which the IC50 is 120 nM.
Consider `Cc1cc(Cn2ncc(NC(=O)Cc3ccc(N4CCCC4)nc3)n2)ccc1C#N` [Example 170, N-[2-(4-Cyano-3-methyl-benzyl)-2H-[1,2,3]triazol-4-yl]-2-(6-pyrrolidin-1-yl-pyridin-3-yl)-acetamide], for which the IC50 came to 50 nM.
With `Cc1cn(C)c2ccc(CC(=O)Nc3cnn(Cc4ccc(C#N)c(F)c4)n3)cc12` [Example 140, N-[2-(4-Cyano-3-fluoro-benzyl)-2H-[1,2,3]triazol-4-yl]-2-(1,3-dimethyl-1H-indol-5-yl)-acetamide], the IC50 was determined as 14 nM.
For the compound `CCOc1ccc(Cn2ncc(NC(=O)Cc3ccc(C4(C)COC4)cc3)n2)cc1` [Example 42, N-[2-(4-Ethoxy-benzyl)-2H-[1,2,3]triazol-4-yl]-2-[4-(3-methyl-oxetan-3-yl)-phenyl]-acetamide], the IC50 is 31 nM.
`CC(C)c1ccc(CC(=O)Nc2cnn(Cc3ccc(F)cc3)n2)cc1` [Example 1, N-[2-(4-Fluoro-benzyl)-2H-[1,2,3]triazol4-yl]-2-(4-isopropyl-phenyl)-acetamide]: the IC50 was determined as 21 nM.
As to `Cc1ccc(Cn2ncc(NC(=O)Cc3ccc(OCC4(F)COC4)cc3)n2)cc1C#N` [Example 200, N-[2-(3-Cyano-4-methyl-benzyl)-2H-[1,2,3]triazol-4-yl]-2-[4-(3-fluoro-oxetan-3-ylmethoxy)-phenyl]-acetamide], the IC50 amounted to 410 nM.
Under `COc1cc(Cn2ncc(NC(=O)Cc3ccc4c(c3)c(C)nn4C)n2)cc(F)c1F` [Example 210, N-[2-(3,4-Difluoro-5-methoxy-benzyl)-2H-[1,2,3]triazol-4-yl]-2-(1,3-dimethyl-1H-indazol-5-yl)-acetamide] stands 260 nM; under `Cc1ccc(Cn2ncc(NC(=O)Cc3ccc(N4CCC(F)(F)C4)nc3)n2)cc1` [Example 65, 2-[6-(3,3-Difluoro-pyrrolidin-1-yl)-pyridin-3-yl]-N-[2-(4-methyl-benzyl)-2H-[1,2,3]triazol-4-yl]-acetamide], 23 nM; under `CC(C)(c1ccc(CC(=O)Nc2cnn(Cc3ccc(C#N)c(F)c3)n2)cc1)C(F)(F)F` [Example 249, N-[2-(4-Cyano-3-fluoro-benzyl)-2H-[1,2,3]triazol-4-yl]-2-[4-(2,2,2-trifluoro-1,1-dimethyl-ethyl)-phenyl]-acetamide], 91 nM.
The figure for `CCOc1ccc(Cn2ncc(NC(=O)Cc3ccc4c(cnn4C)c3)n2)cc1` [Example 46, N-[2-(4-Ethoxy-benzyl)-2H-[1,2,3]triazol-4-yl]-2-(1-methyl-1H-indazol-5-yl)-acetamide] is 63 nM.
The figure for `COc1cc(Cn2ncc(NC(=O)Cc3ccc(OC4CC(F)(F)C4)cc3)n2)cc(F)c1F` [Example 230, 2-[4-(3,3-Difluoro-cyclobutoxy)-phenyl]-N-[2-(3,4-difluoro-5-methoxy-benzyl)-2H-[1,2,3]triazol-4-yl]-acetamide] is 350 nM; for `O=C(Cc1ccc2[nH]ccc2c1)Nc1cnn(Cc2ccc(F)c(F)c2)n1` [Example 15, N-[2-(3,4-Difluoro-benzyl)-2H-[1,2,3]triazol-4-yl]-2-(1H-indol-5-yl)-acetamide] it is 40 nM.
As to `CCN(CC)c1ccc(CC(=O)Nc2cnn(Cc3ccc(F)cc3)n2)cn1` [Example 95, 2-(6-Diethylamino-pyridin-3-yl)-N-[2-(4-fluoro-benzyl)-2H-[1,2,3]triazol-4-yl]-acetamide], the IC50 was 46 nM.
Under `Cc1ccc(Cn2ncc(NC(=O)Cc3ccc(C(C)C)cc3)n2)cc1` [Example 24, 2-(4-Isopropyl-phenyl)-N-[2-(4-methyl-benzyl)-2H-[1,2,3]triazol-4-yl]-acetamide] stands 37 nM.
The figure for `COc1ccc(Cn2ncc(NC(=O)Cc3ccc(N4CCCC4)nc3)n2)cc1C#N` [Example 236, N-[2-(3-Cyano-4-methoxy-benzyl)-2H-[1,2,3]triazol-4-yl]-2-(6-pyrrolidin-1-yl-pyridin-3-yl)-acetamide] is 160 nM; for `COc1ccc(Cn2ncc(NC(=O)Cc3ccc4c(c3)c(C)cn4C)n2)cc1F` [Example 129, 2-(1,3-Dimethyl-1H-indol-5-yl)-N-[2-(3-fluoro-4-methoxy-benzyl)-2H-[1,2,3]triazol-4-yl]-acetamide] it is 48 nM.

Broadly, the IC50 is the point on the concentration scale where inhibition reaches its midpoint.

The values are drawn from US10246426B2, “Triazole compounds as T-type calcium channel blockers” (IDORSIA PHARMACEUTICALS LTD, priority 2014, dated 2019).
